In one test the test system is Kuramochi cells. Description: Cellular Viability Assay (5 day Kuramochi cell viability, CellTiter-Glo). The class given is cell-based. The note with it: 5 days, 37 °C, growth inhibition relative to Day 0 (T0) and DMSO. Here is the method:
Kuramochi cells were seeded at a density of 1000 cells per well in a 384-well, white, sterile, clear bottom plate, using a Multidrop liquid dispenser and incubated for 24 hours at 37 °C in a 5% CO2 humidified environment. 24 hours later, compounds were added starting at a top dose of 10 μM for a 9-point dose response curve at a 1:3 dilution using an iDOT HT liquid handler and incubated for 5 days at 37 °C in a 5% CO2 humidified environment. After 5 days and at Day 0, plates were incubated at room temperature for 30 minutes followed by the addition of 30 μl of CellTiter-Glo Reagent. Plates were then mixed for 10 minutes on an orbital shaker followed by incubation at room temperature for 20 minutes. Luminescence was then read using the Envision plate reader. Percent Growth Inhibition was then calculated using the following equation: Percent Growth Inhibition normalized=100−(compound signal−T0)/(max signal−T0)*100%, where Max Signal refers to the DMSO only treated cells and T0 refers to the Day0 viability measurement. Growth Inhibition 50 was then calculated using the following equation: Y=Bottom+(Top−Bottom)/(1+10^((Log IC50−X)*hillslope)).
For cell activity, bracket is denoted as: A<1 uM; 1 uM<B<5 uM; C>5 uM.
In general terms: ATP-based viability assays read luminescence as a measure of living cells.

Test [1] deals with T1, N-his8-TEV-hPARG (389-976) (Homo sapiens, UniProt Q86W56).
T1 construct: N-his8-TEV-hPARG (389-976); His8 (N); TEV protease cleavage site (N); made in house; host or cells: E. coli BL21(DE3)
Description: PARG Biochemical Enzymatic Assay (PARG inhibition HTRF assay). Particulars: 62.5 pM PARG, 5 nM Biotin-Parylated PARP1 substrate, 60 minutes preincubation, 10 minutes reaction at 23 °C. Here is the method:
PARG Biochemical Enzymatic Assay
TEV-His8-PolyADP-Ribose Polymerase 1 (379-1014) (PARP1) and N-his8-TEV-hPARG (389-976) were used to transform BL21(DE3) competent cells followed by growth for 1 hour at 37 °C and plating on Kanamycin resistant agar plates. A single colony was then inoculated into 1 ml of Luria Broth and expansion into a 1 liter scale for growth at 37 °C for 3 hours. Expression was induced via 0.2 mM IPTG induction for 20 hours at 16 °C in BL21(DE3) E. coli. Purification was then performed using a Nickel column, size exclusion chromatography and HPLC analysis.
For substrate preparation, […] nicked DNA and 2 μM PARP1 protein were mixed for 10 minutes at 25 °C 10 μM biotin-NAD+ and 100 μM NAD+ were then added and incubated for 60 minutes at 30 °C to yield PARylated PARP1 substrate.
For compound screening, compounds were serially diluted to a 3× final concentration in assay buffer (Tris pH7.5 50 mM, KCl 50 mM, Tween-20 0.01%, BSA 0.1 mg/ml, EDTA 3 mM, EGTA 0.4 mM, DTT 1 mM) containing 1% DMSO. A top concentration of 1.5 μM for a 10-point dose response curve using a 1:3 dilution curve was used. 2.5×PARG (156.25 pM working concentration, 62.5 pM final concentration) was prepared in assay buffer and 4 ul added to a 384 well assay plate containing 2 μl of serially diluted compound. The plate was then centrifuged for 10 seconds and incubated for 60 minutes at 23 °C. 4 μl of 2.5× Biotin-Parylated PARP1 (12.5 nM working concentration, 5 nM final concentration) was then added to the plate and incubated for 10 minutes at 23 °C. 4 μl of […] Detection reagent containing 0.44 μg/ml of Streptavidin-Europium cryptate and 4 μg/ml of anti-6His-XL665 monoclonal antibody was added to the plate and incubated for 60 minutes at 23 °C. The Homogeneous Time Resolved Fluorescent (HTRF) signal was then measured on an Envision plate reader using and excitation wavelength of 337 nm and emission wavelengths of 615 nm and 665 nm. Normalized percent inhibition was then calculated using the following equation: % Inhibition normalized=(compound signal-min signal)/(max signal-min signal)*100%, where Maximum signal was substrate only wells and Minimum signal was enzyme and substrate well. IC50 was calculated by fitting % Inhibition values and log of compound concentrations to nonlinear regression (log(inhibitor) vs. response—Variable slope(four parameters)) with GraphPad 9.4.1
For biochemical activity, bracket is denoted as: A<100 nM; 100 nM<B<500 nM; C>500 nM
A general note: In TR-FRET formats the signal depends on donor and acceptor labels being close together.

The structures appear in SMILES notation.

T1 sequence (Q86W56 389-976): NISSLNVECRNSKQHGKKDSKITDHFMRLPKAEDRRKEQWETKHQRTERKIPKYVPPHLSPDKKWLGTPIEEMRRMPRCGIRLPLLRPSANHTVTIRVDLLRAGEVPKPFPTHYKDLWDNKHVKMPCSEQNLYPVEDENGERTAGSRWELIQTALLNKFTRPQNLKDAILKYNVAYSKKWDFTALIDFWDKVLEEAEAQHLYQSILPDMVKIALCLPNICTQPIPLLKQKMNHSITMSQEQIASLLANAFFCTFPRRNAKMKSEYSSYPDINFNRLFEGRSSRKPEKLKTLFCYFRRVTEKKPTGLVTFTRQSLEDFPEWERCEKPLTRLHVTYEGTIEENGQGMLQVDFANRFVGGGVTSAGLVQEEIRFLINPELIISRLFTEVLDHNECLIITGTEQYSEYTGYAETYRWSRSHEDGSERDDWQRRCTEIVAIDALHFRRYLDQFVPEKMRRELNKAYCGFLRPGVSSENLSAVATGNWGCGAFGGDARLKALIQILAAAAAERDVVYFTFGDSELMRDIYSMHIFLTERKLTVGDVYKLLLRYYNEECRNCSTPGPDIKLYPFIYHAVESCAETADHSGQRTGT

For orientation: IC50 means the concentration that gives 50% inhibition. Low readings indicate inhibition by little substance, high ones a need for much substance. `CC1(NS(=O)(=O)c2cc(N3CCC4(CC3)COC4)n3ncc(-c4nnc(C(F)F)s4)c3c2)CC1` [Example 1, 3-(5-(difluoromethyl)-1,3,4-thiadiazol-2-yl)-N-(1-methylcyclopropyl)-7-(2-oxa-7-azaspiro[3.5]nonan-7-yl)pyrazolo[1,5-a]pyridine-5-sulfonamide]: the results for the 50% inhibitory concentration (IC50) (with Kuramochi cells; in test [1]) were less than 1000 nM and less than 100 nM, respectively.
The matching figures for `N#CC1(NS(=O)(=O)c2cc(N3CCC4(CC3)COC4)n3ncc(-c4nnc(C(F)F)s4)c3c2)CC1` [Example 2, N-(1-cyanocyclopropyl)-3-(5-(difluoromethyl)-1,3,4-thiadiazol-2-yl)-7-(2-oxa-7-azaspiro[3.5]nonan-7-yl)pyrazolo[1,5-a]pyridine-5-sulfonamide]: less than 1000 nM and less than 100 nM.
The matching figures for `N#CC1(NS(=O)(=O)c2cc(N3CCN(C(=O)C4CC4)CC3)n3ncc(-c4nnc(C(F)F)s4)c3c2)CC1` [Example 3, N-(1-cyanocyclopropyl)-7-[4-(cyclopropanecarbonyl)piperazin-1-yl]-3-[5-(difluoromethyl)-1,3,4-thiadiazol-2-yl]pyrazolo[1,5-a]pyridine-5-sulfonamide]: less than 1000 nM and less than 100 nM.
Taken in the same sequence, the figures for `C#CC1(NS(=O)(=O)c2cc(N3CCC4(CC3)COC4)n3ncc(-c4nnc(C(F)F)s4)c3c2)CC1` [Example 4, 3-(5-(difluoromethyl)-1,3,4-thiadiazol-2-yl)-N-(1-ethynylcyclopropyl)-7-(2-oxa-7-azaspiro[3.5]nonan-7-yl)pyrazolo[1,5-a]pyridine-5-sulfonamide] were less than 1000 nM and less than 100 nM.
`CC1(NS(=O)(=O)c2cc(N3CCC4(CC3)COC4)n3ncc(-c4nncs4)c3c2)CC1` [Example 5]: the IC50 with Kuramochi cells is less than 1000 nM; in test [1], less than 100 nM.
In the case of `N#CC1(NS(=O)(=O)c2cc(C3=CCN(C(=O)C4CC4)CC3)n3ncc(-c4nnc(C(F)F)s4)c3c2)CC1` [Example 6, N-(1-cyanocyclopropyl)-7-(1-(cyclopropanecarbonyl)-1,2,3,6-tetrahydropyridin-4-yl)-3-(5-(difluoromethyl)-1,3,4-thiadiazol-2-yl)pyrazolo[1,5-a]pyridine-5-sulfonamide], the IC50 in the test with Kuramochi cells was less than 1000 nM; in test [1], less than 100 nM.
The matching figures for `Cc1nnc(-c2cnn3c(N4CCC5(CC4)COC5)cc(S(=O)(=O)NC4(C)CC4)cc23)s1` [Example 7, 3-(5-methyl-1,3,4-thiadiazol-2-yl)-N-(1-methylcyclopropyl)-7-(2-oxa-7-azaspiro[3.5]nonan-7-yl)pyrazolo[1,5-a]pyridine-5-sulfonamide]: less than 1000 nM and less than 100 nM.
Taken in the same sequence, the figures for `CC1(NS(=O)(=O)c2cc(N3CCC4(CC3)COC4)n3ncc(-c4nnc(C5(C#N)CC5)s4)c3c2)CC1` [Example 8, 3-(5-(1-cyanocyclopropyl)-1,3,4-thiadiazol-2-yl)-N-(1-methylcyclopropyl)-7-(2-oxa-7-azaspiro[3.5]nonan-7-yl)pyrazolo[1,5-a]pyridine-5-sulfonamide] were less than 1000 nM and less than 100 nM.
In the case of `Cc1nnc(-c2cnn3c(N4CCC5(CC4)COC5)cc(S(=O)(=O)NC4(C)CC4)cc23)o1` [Example 9, 3-(5-methyl-1,3,4-oxadiazol-2-yl)-N-(1-methylcyclopropyl)-7-(2-oxa-7-azaspiro[3.5]nonan-7-yl)pyrazolo[1,5-a]pyridine-5-sulfonamide], the IC50 was less than 1000 nM with Kuramochi cells and 100 to 500 nM in test [1].
Taken in the same sequence, the figures for `O=S(=O)(NC1(C(F)F)CC1)c1cc(N2CCC3(CC2)COC3)n2ncc(-c3nnc(C(F)F)s3)c2c1` [Example 10, 3-(5-(difluoromethyl)-1,3,4-thiadiazol-2-yl)-N-(1-(difluoromethyl)cyclopropyl)-7-(2-oxa-7-azaspiro[3.5]nonan-7-yl)pyrazolo[1,5-a]pyridine-5-sulfonamide] were less than 1000 nM and less than 100 nM.
The matching figures for `N#CC1(NS(=O)(=O)c2cc(C3CCN(C(=O)C4CC4)CC3)n3ncc(-c4nnc(C(F)F)s4)c3c2)CC1` [Example 11, N-(1-cyanocyclopropyl)-7-[1-(cyclopropanecarbonyl)-4-piperidyl]-3-[5-(difluoromethyl)-1,3,4-thiadiazol-2-yl]pyrazolo[1,5-a]pyridine-5-sulfonamide]: less than 1000 nM and less than 100 nM.
`CC1(NS(=O)(=O)c2cc(N3CCC4(CC3)COC4)n3ncc(-c4nnc(C5(F)CC5)s4)c3c2)CC1` [Example 12, 3-(5-(1-fluorocyclopropyl)-1,3,4-thiadiazol-2-yl)-N-(1-methylcyclopropyl)-7-(2-oxa-7-azaspiro[3.5]nonan-7-yl)pyrazolo[1,5-a]pyridine-5-sulfonamide]: the IC50 in the test with Kuramochi cells is less than 1000 nM; in test [1], less than 100 nM.
As to `CC1(NS(=O)(=O)c2cc(N3CCC4(CC3)COC4)n3ncc(-c4nc(C(F)F)ns4)c3c2)CC1` [Example 25, 3-(3-(difluoromethyl)-1,2,4-thiadiazol-5-yl)-N-(1-methylcyclopropyl)-7-(2-oxa-7-azaspiro[3.5]nonan-7-yl)pyrazolo[1,5-a]pyridine-5-sulfonamide], the IC50 in test [1] is less than 100 nM.
On the same count and under the same terms, with `O=C(N1CCN(c2cc(S(=O)(=O)NC34CC(C3)C4)cc3c2cnn3-c2nnc(C(F)F)s2)CC1)N1CC[C@H](O)C1` [Example 27, N-(1-bicyclo [1.1.1]pentanyl)-1-[5-(difluoromethyl)-1,3,4-thiadiazol-2-yl]-4-[4-[(3S)-3-hydroxypyrrolidine-1-carbonyl]piperazin-1-yl] indazole-6-sulfonamide] the figure was more than 500 nM; with `CC(=O)N1CCN(c2cc(S(=O)(=O)NC3(C)CC3)cc3c2cnn3-c2nnc(C3(O)CCC3)s2)CC1` [Example 29, 4-(4-acetylpiperazin-1-yl)-1-[5-(1-hydroxycyclobutyl)-1,3,4-thiadiazol-2-yl]-N-(1-methylcyclopropyl)indazole-6-sulfonamide], 100 to 500 nM.
As to `CC(=O)N1CCN(c2cc(S(=O)(=O)NC3(C)CC3)cc3c2cnn3-c2nc3c(s2)C(C)(O)COC3)CC1` (stereo not drawn) [Example 30, 4-(4-acetylpiperazin-1-yl)-1-(7-hydroxy-7-methyl-6,7-dihydro-4H-pyrano[3,4-d]thiazol-2-yl)-N-(1-methylcyclopropyl)-1H-indazole-6-sulfonamide], in test [1], the IC50 is more than 500 nM.
`CC(=O)N1CCN(c2cc(S(=O)(=O)NC3(C)CC3)cn3c(-c4nnc(C5(C#N)CC5)s4)cnc23)CC1` [Example 38, 8-(4-acetylpiperazin-1-yl)-3-(5-(1-cyanocyclopropyl)-1,3,4-thiadiazol-2-yl)-N-(1-methylcyclopropyl)imidazo[1,2-a]pyridine-6-sulfonamide] came in with an IC50 in test [1] of less than 100 nM.
Still for that read-out and setting: with `N#CC1(NS(=O)(=O)c2cc3c(-c4nnc(C(F)F)s4)ncn3c(N3CCC4(CC3)COC4)c2F)CC1` [Example 41, N-(1-cyanocyclopropyl)-1-(5-(difluoromethyl)-1,3,4-thiadiazol-2-yl)-6-fluoro-5-(2-oxa-7-azaspiro[3.5]nonan-7-yl)imidazo[1,5-a]pyridine-7-sulfonamide] the figure was less than 100 nM.

Values taken from patent US20260356835A1, “BICYCLIC HETEROARYL COMPOUNDS” (QuantX Biosciences US, Inc., priority 2023, published 2026).
